These results are taken from US12338446B2, “Plants having increased tolerance to herbicides” (priority 2015, dated 2025).

Read-outs that look alike come from different tables or passages of the source.

Assay [1] has as its system Transgenic Arabidopsis thaliana plants with wildtype or mutated PPO sequences. The assay can be described thus: Tolerance of transgenic Arabidopsis thaliana plants to PPO-inhibiting herbicides in 48-well plates (growth inhibition). The class given is in vivo. Particulars: seven to ten days after seeding. As to the method: Transformed cells are selected in selection media supplemented with 0.5-1.5 μM imazethapyr for 3-4 weeks. Transgenic plantlets are regenerated on plant regeneration media and rooted afterwards. Transgenic plantlets are subjected to TaqMan analysis for the presence of the transgene before being transplanted to potting mixture and grown to maturity in greenhouse. Arabidopsis thaliana are transformed with wildtype or mutated PPO sequences by floral dip method as described by McElver and Singh (WO 2008/124495). Transgenic Arabidopsis plants are subjected to TaqMan analysis for analysis of the number of integration loci. Transformation of Otyza sativa (rice) are done by protoplast transformation as described by Peng et al. (U.S. Pat. No. 6,653,529) TO or T1 transgenic plant of soybean, corn, and rice containing mutated PPO sequences are tested for improved tolerance to PPO-derived herbicides in greenhouse studies and mini-plot studies with the following PPO-inhibiting herbicides: saflufenacil, 1,5-dimethyl-6-thioxo-3-(2,2,7-trifluoro-3-oxo-4-(prop-2-ynyl)-3,4-dihydro-2H-benzo[b][1,4]oxazin-6-yl)-1,3,5-triazinane-2,4-dione (CAS 1258836-72-4), flumioxazin, butafenacil, acifluorfen, lactofen, bifenox, sulfentrazone, and photosynthesis inhibitor diuron as negative control.
Transgenic Arabidopsis thaliana plants are assayed for improved tolerance to saflufenacil, 1,5-dimethyl-6-thioxo-3-(2,2,7-trifluoro-3-oxo-4-(prop-2-ynyl)-3,4-dihydro-2H-benzo[b][1,4]oxazin-6-yl)-1,3,5-triazinane-2,4-dione (CAS 1258836-72-4), flumioxazin, butafenacil, acifluorfen, lactofen, bifenox, sulfentrazone, and photosynthesis inhibitor diuron as negative control in 48-well plates. Therefore, T2 seeds are surface sterilized by stirring for 5 min in ethanol+water (70+30 by volume), rinsing one time with ethanol+water (70+30 by volume) and two times with sterile, deionized water. The seeds are resuspended in 0.1% agar dissolved in water (w/v) Four to five seeds per well are plated on solid nutrient medium consisting of half-strength murashige skoog nutrient solution, pH 5.8 (Murashige and Skoog (1962) Physiologia Plantarum 15: 473-497). Compounds are dissolved in dimethylsulfoxid (DMSO) and added to the medium prior solidification (final DMSO concentration 0.1%). Multi well plates are incubated in a growth chamber at 22° C., 75% relative humidity and 110 μmol Phot*m^−2*s^−1 with 14:10 h light: dark photoperiod. Growth inhibition is evaluated seven to ten days after seeding in comparison to wild type plants.

For assay [2], the system named is Nicotiana benthamiana leaf discs. Description: PSII yield inhibition (chlorophyll fluorescence, imaging PAM) in transiently transformed tobacco leaf discs. The class given is cell-based. The conditions noted are these: read-out: IC50 of PSII yield inhibition. The text has this: Transient expression of PPO sequences (e.g. SEQ ID NO: 184) as wildtype or with respective mutations were done as described previously (Voinnet O., et al., 2003, The Plant Journal 33, 949-956). In brief, cloning of GOI and Agrobacterium transformation (strain: GV2260) were done as described in EXAMPLE 5. Young leaves of
Nicotiana benthamiana were infiltrated with transgenic Agrobacterium suspension (OD^600 of 1.0) harboring binary vector constructs containing a GO/gene controlled by a promoter and terminator sequence. 48 h to 72 h after infiltration punches of leave discs (0.75 cm in diameter) were transferred to 6-well plates with medium (half strength Linsmaier-Skoog (Linsmaier and Skoog (1965) Physiol. Plant. 18: 100-127) nutrient solution or water) containing herbicide of interest in different concentrations. […]
Leaf discs, generated as described in EXAMPLE 14, expressing a protein encoded by GOI, were subjected to analysis on improved tolerance to herbicide treatment. For analysis of herbicide damage, chlorophyll fluorescence were identified as indicative marker (Dayan and Zaccaro (2012) Pest. Biochem. Physiol. 102: 189-197). […] PSII yield were measured as per manufacturer instructions. Tolerance factors were calculated based on IC50 values of PSII yield inhibition of transformed versus empty vector-transformed leaf discs. […]

Setting [3] is: gene CHLSP_PPO_wt_tpFNR, Chloroflexus sp. (SEQ ID NO: 21).
[4] abbreviates: gene OPITE_PPO_wt_tpFNR, Opitutus marinus (SEQ ID NO: 9).
The mark [5] stands for this setting: gene RHOMA_PPO_F353V_tpFNR, Rhodotermus marinus (SEQ ID NO: 3 oder 5).
Setting [6] is: gene RHOMA_PPO_wt_tpFNR, Rhodotermus marinus (SEQ ID NO: 3 oder 5).
Where [7] appears, read: gene hemG_tpFNR, Escherichia coli (SEQ ID NO: 184).

By IC50 is commonly meant the concentration that inhibits the measured activity by half. For `C#CCN1C(=O)C(F)(F)Oc2cc(F)c(-n3c(=O)n(C)c(=S)n(C)c3=O)cc21` [BAS 850H, 1,5-dimethyl-6-thioxo-3-(2,2,7-trifluoro-3-oxo-4-(prop-2-ynyl)-3,4-dihydro-2H-benzo[b][1,4]oxazin-6-yl)-1,3,5-triazinane-2,4-dione], the “improved tolerance (growth inhibition in comparison to wild type plants)” value in assay [1] (setting [3]) amounted to 1500; in assay [1] (setting [4]) it was 9; in assay [1] (setting [5]), 1; in assay [1] (setting [6]), 1; in assay [1] (setting [7]) it was 4433. Besides, the IC50 in assay [2] (empty vector-transformed leaf discs, treated for 48 h) came to 11 nM.

In the case of `CC(C)N(C)S(=O)(=O)NC(=O)c1cc(-n2c(=O)cc(C(F)(F)F)n(C)c2=O)c(F)cc1Cl` [Saflufenacil, saflufenacil], the “improved tolerance (growth inhibition in comparison to wild type plants)” value in assay [1] (gene AC IB A_hemJ_wt_tpFNR, Acinetobacter baylyi (SEQ ID NO: 312)) is on record as 1; in assay [1] (gene CALNI_PPO_wt_tpFNR, Calditerrivibrio nitroreducens (SEQ ID NO: 48)), 1; in assay [1] (gene CANME_PPO_wt_tpFNR, Candidatus methylomirabilis (SEQ ID NO: 54 or 57)) it was 1; in assay [1] (setting [3]), 640; in assay [1] (gene HYDTH_PPO_wt_tpFNR, Hydrogenobacter thermophilus (SEQ ID NO: 27)), 10; in assay [1] (gene LARHO_PPO_wt_tpFNR, Laribacter hongkongensis (SEQ ID NO: 34)), 1. Besides, the “improved tolerance (growth inhibition in comparison to wild type plants)” value is listed as 14 in assay [1] (setting [4]), 1 in assay [1] (setting [5]), 1 in assay [1] (setting [6]) and 332 in assay [1] (setting [7]). Also, the IC50 in assay [2] (48 h) was 110 nM.
